# Test results published in patent publication US11793849B2, “Method of Chinese herbal medicine extract used for treating multiple diseases caused by drug resistant bacteria infection” (priority 2016, dated 2023).
# Where two headings read alike, the source gives them in different places.
# Experiments:
# MDRAB [1] = test: MIC determination, microdilution broth method; type: cell-based, Acinetobacter baumannii
# Method: Determination methods of a Minimal Inhibitory Concentration (MIC) and a Minimum Bactericidal Concentration (MBC) of a test product: the MIC and the MBC of the Pithecellobium clypearia Benth water or ethanol extract to the MDRAB are determined by a microdilution broth method. And it is operated by referring to the microdilution broth method recommended by National Committee for Clinical Laboratory Standards (NCCLS).
# MDRAB [2] = test: Checkerboard assay (combined-use MIC, FIC); type: cell-based, Acinetobacter baumannii; settings: for FIC, all strains / MIC50 of the antibiotic after combined use / reduction of the antibiotic's MIC50 vs single use / reduction of the antibiotic's MIC90 vs single use / share of strains with FIC ≤ 0.5: 20 MDRABs; for MIC: Acinetobacter baumannii, read-out: single-use MIC
# Method: Test methods of the sensibilization effects of the test product to similar antibiotics: it is operated by referring to a checkerboard assay recommended by NCCLS.
# The checkerboard assay is performed in a 96-pore sterile culture plate.
# Calculation of a Fractional Inhibitory Concentration (FIC): FIC=S20b combined-use MIC/S20b single-use MIC+antibiotic combined-use MIC/antibiotic single-use MIC. By calculating the FIC, the combined antibacterial interaction between the EA and the antibiotic is evaluated, with synergistic effect for FIC≤0.5, additive effect for 0.5<FIC≤1, indifferent effect for 1<FIC≤2 and antagonistic effect for FIC>2. According to a sterile growth pore, the optimum concentration ratio between the EA and the antibiotic is founded out. At last, the effect of the EA to strengthen the efficacy of the antibiotic is evaluated.
# ATCC27853 = test: MIC determination, control strain; type: cell-based; settings: read-out: MIC
# Method: Determination methods of a Minimal Inhibitory Concentration (MIC) and a Minimum Bactericidal Concentration (MBC) of a test product: the MIC and the MBC of the Pithecellobium clypearia Benth water or ethanol extract to the MDRAB are determined by a microdilution broth method.
# [3] = antibiotic with 60% ethanol extract
# [4] = antibiotic with 95% ethanol extract
# [5] = antibiotic with EA (10% ethanol extract)
# [6] = antibiotic with EA (water extract)
smiles,measurement,setting,value
"CN(C)[C@@H]1C(O)=C(C(N)=O)C(=O)[C@@]2(O)C(O)=C3C(=O)c4c(O)cccc4[C@@](C)(O)[C@H]3C[C@@H]12 [TE, Tetracycline]",MIC,"MDRAB [1]; Acinetobacter baumannii, strain A4, EA=60% ethanol extract, read-out: MIC",8 µg/mL
same,MIC,"MDRAB [1]; Acinetobacter baumannii, strain A4, EA=95% ethanol extract, read-out: MIC",8 µg/mL
same,MIC,"MDRAB [1]; Acinetobacter baumannii, strain A4, single use, EA=10% ethanol extract, read-out: MIC",8 µg/mL
same,MIC,"MDRAB [1]; Acinetobacter baumannii, strain A4, single use, EA=water extract, read-out: MIC",8 µg/mL
same,MIC,"MDRAB [1]; Acinetobacter baumannii, strain A5, EA=60% ethanol extract, read-out: MIC",32 µg/mL
same,MIC,"MDRAB [1]; Acinetobacter baumannii, strain A5, EA=95% ethanol extract, read-out: MIC",32 µg/mL
same,MIC,"MDRAB [1]; Acinetobacter baumannii, strain A5, single use, EA=10% ethanol extract, read-out: MIC",32 µg/mL
same,MIC,"MDRAB [1]; Acinetobacter baumannii, strain A5, single use, EA=water extract, read-out: MIC",32 µg/mL
same,MIC,"MDRAB [1]; strain A15, single use, EA=10% ethanol extract",1024 µg/mL
same,MIC,"MDRAB [1]; strain A15, single use, EA=water extract",1024 µg/mL
same,"FIC, all strains",MDRAB [2]; [3],≤ 1
same,MIC50 of the antibiotic after combined use,MDRAB [2]; [3],32 µg/mL
same,reduction of the antibiotic's MIC50 vs single use,MDRAB [2]; [3],87.5%
same,reduction of the antibiotic's MIC90 vs single use,MDRAB [2]; [3],75%
same,share of strains with FIC ≤ 0.5,MDRAB [2]; [3],50%
same,"FIC, all strains",MDRAB [2]; [4],≤ 1
same,MIC50 of the antibiotic after combined use,MDRAB [2]; [4],32 µg/mL
same,reduction of the antibiotic's MIC50 vs single use,MDRAB [2]; [4],87.5%
same,reduction of the antibiotic's MIC90 vs single use,MDRAB [2]; [4],75%
same,share of strains with FIC ≤ 0.5,MDRAB [2]; [4],35%
same,"FIC, all strains",MDRAB [2]; [5],≤ 1
same,MIC50 of the antibiotic after combined use,MDRAB [2]; [5],64 µg/mL
same,reduction of the antibiotic's MIC50 vs single use,MDRAB [2]; [5],75%
same,reduction of the antibiotic's MIC90 vs single use,MDRAB [2]; [5],50%
same,share of strains with FIC ≤ 0.5,MDRAB [2]; [5],45%
same,"FIC, all strains",MDRAB [2]; [6],≤ 1
same,MIC50 of the antibiotic after combined use,MDRAB [2]; [6],64 µg/mL
same,reduction of the antibiotic's MIC50 vs single use,MDRAB [2]; [6],75%
same,reduction of the antibiotic's MIC90 vs single use,MDRAB [2]; [6],75%
same,share of strains with FIC ≤ 0.5,MDRAB [2]; [6],35%
same,MIC,"MDRAB [2]; strain A4, EA=60% ethanol extract",8 µg/mL
same,MIC,"MDRAB [2]; strain A4, EA=95% ethanol extract",8 µg/mL
same,MIC,"MDRAB [2]; strain A5 (printed AS in tables A43, A45), EA=95% ethanol extract",32 µg/mL
same,MIC,"MDRAB [2]; strain A5, EA=60% ethanol extract",32 µg/mL
same,MIC,"MDRAB [2]; strain A15, EA=60% ethanol extract",1020 µg/mL
same,MIC,"MDRAB [2]; strain A15, EA=95% ethanol extract",1020 µg/mL
same,combined-use MIC,"MDRAB [2]; strain A1, EA (10% ethanol extract) with TE",1 µg/mL
same,combined-use MIC,"MDRAB [2]; strain A1, EA (60% ethanol extract) + TE combined",1 µg/mL
same,combined-use MIC,"MDRAB [2]; strain A1, EA (95% ethanol extract) + TE combined",1 µg/mL
same,combined-use MIC,"MDRAB [2]; strain A1, EA (water extract) with TE",1 µg/mL
same,combined-use MIC,"MDRAB [2]; strain A2, EA (10% ethanol extract) with TE",64 µg/mL
same,combined-use MIC,"MDRAB [2]; strain A2, EA (60% ethanol extract) + TE combined",64 µg/mL
same,combined-use MIC,"MDRAB [2]; strain A2, EA (95% ethanol extract) + TE combined",64 µg/mL
same,combined-use MIC,"MDRAB [2]; strain A3, EA (10% ethanol extract) with TE",64 µg/mL
same,combined-use MIC,"MDRAB [2]; strain A3, EA (60% ethanol extract) + TE combined",32 µg/mL
same,combined-use MIC,"MDRAB [2]; strain A3, EA (95% ethanol extract) + TE combined",32 µg/mL
same,combined-use MIC,"MDRAB [2]; strain A3, EA (water extract) with TE",64 µg/mL
same,combined-use MIC,"MDRAB [2]; strain A4, EA (10% ethanol extract) with TE",2 µg/mL
same,combined-use MIC,"MDRAB [2]; strain A4, EA (60% ethanol extract) + TE combined",1 µg/mL
same,combined-use MIC,"MDRAB [2]; strain A4, EA (95% ethanol extract) + TE combined",1 µg/mL
same,combined-use MIC,"MDRAB [2]; strain A4, EA (water extract) with TE",2 µg/mL
same,combined-use MIC,"MDRAB [2]; strain A5, EA (10% ethanol extract) with TE",4 µg/mL
same,combined-use MIC,"MDRAB [2]; strain A5, EA (60% ethanol extract) + TE combined",8 µg/mL
same,combined-use MIC,"MDRAB [2]; strain A5, EA (95% ethanol extract) + TE combined",8 µg/mL
same,combined-use MIC,"MDRAB [2]; strain A5, EA (water extract) with TE",4 µg/mL
same,combined-use MIC,"MDRAB [2]; strain A6, EA (10% ethanol extract) with TE",64 µg/mL
same,combined-use MIC,"MDRAB [2]; strain A6, EA (water extract) with TE",64 µg/mL
same,combined-use MIC,"MDRAB [2]; strain A8, EA (10% ethanol extract) with TE",64 µg/mL
same,combined-use MIC,"MDRAB [2]; strain A8, EA (60% ethanol extract) + TE combined",32 µg/mL
same,combined-use MIC,"MDRAB [2]; strain A8, EA (95% ethanol extract) + TE combined",32 µg/mL
same,combined-use MIC,"MDRAB [2]; strain A9, EA (10% ethanol extract) with TE",32 µg/mL
same,combined-use MIC,"MDRAB [2]; strain A9, EA (60% ethanol extract) + TE combined",32 µg/mL
same,combined-use MIC,"MDRAB [2]; strain A9, EA (95% ethanol extract) + TE combined",32 µg/mL
same,combined-use MIC,"MDRAB [2]; strain A9, EA (water extract) with TE",64 µg/mL
same,combined-use MIC,"MDRAB [2]; strain A10, EA (10% ethanol extract) with TE",32 µg/mL
same,combined-use MIC,"MDRAB [2]; strain A10, EA (60% ethanol extract) + TE combined",32 µg/mL
same,combined-use MIC,"MDRAB [2]; strain A10, EA (95% ethanol extract) + TE combined",32 µg/mL
same,combined-use MIC,"MDRAB [2]; strain A10, EA (water extract) with TE",64 µg/mL
same,combined-use MIC,"MDRAB [2]; strain A11, EA (10% ethanol extract) with TE",64 µg/mL
same,combined-use MIC,"MDRAB [2]; strain A11, EA (60% ethanol extract) + TE combined",32 µg/mL
same,combined-use MIC,"MDRAB [2]; strain A11, EA (95% ethanol extract) + TE combined",32 µg/mL
same,combined-use MIC,"MDRAB [2]; strain A11, EA (water extract) with TE",64 µg/mL
same,combined-use MIC,"MDRAB [2]; strain A14, EA (60% ethanol extract) + TE combined",32 µg/mL
same,combined-use MIC,"MDRAB [2]; strain A14, EA (95% ethanol extract) + TE combined",32 µg/mL
same,combined-use MIC,"MDRAB [2]; strain A14, EA (water extract) with TE",32 µg/mL
same,combined-use MIC,"MDRAB [2]; strain A15, EA (60% ethanol extract) + TE combined",64 µg/mL
same,combined-use MIC,"MDRAB [2]; strain A15, EA (95% ethanol extract) + TE combined",64 µg/mL
same,combined-use MIC,"MDRAB [2]; strain A15, EA (water extract) with TE",64 µg/mL
same,combined-use MIC,"MDRAB [2]; strain A16, EA (water extract) with TE",64 µg/mL
same,combined-use MIC,"MDRAB [2]; strain A17, EA (10% ethanol extract) with TE",64 µg/mL
same,combined-use MIC,"MDRAB [2]; strain A18, EA (60% ethanol extract) + TE combined",64 µg/mL
same,combined-use MIC,"MDRAB [2]; strain A19, EA (water extract) with TE",64 µg/mL
same,combined-use MIC,"MDRAB [2]; strain A20, EA (60% ethanol extract) + TE combined",32 µg/mL
same,combined-use MIC,"MDRAB [2]; strain A20, EA (95% ethanol extract) + TE combined",32 µg/mL
same,combined-use MIC,"MDRAB [2]; strain A20, EA (water extract) with TE",64 µg/mL
same,MIC,ATCC27853; EA=10% ethanol extract,8 µg/mL
same,MIC,ATCC27853; EA=60% ethanol extract,8 µg/mL
same,MIC,ATCC27853; EA=95% ethanol extract,8 µg/mL
same,MIC,ATCC27853; EA=water extract,8 µg/mL
